One block for each compound: values may come before it.
What was measured:
HepG2 [1] = test: Antiproliferative activity against human HepG2 cells assessed as inhibition of cell growth incubated for 72 hrs by MTT assay; format: functional, cell-based; settings: HepG2, 72 h
SK-HEP1 = test: Antiproliferative activity against human SK-HEP1 cells assessed as inhibition of cell growth incubated for 72 hrs by MTT assay; format: functional, cell-based; settings: SK-HEP1, 72 h
HepG2 [2] = test: Antiproliferative activity against cisplatin-resistant human HepG2 cells assessed as inhibition of cell growth incubated for 72 hrs by MTT assay; format: functional, cell-based; settings: HepG2, 72 h
DNA = test: Binding affinity to duplex DNA (unknown origin) using fluorescent tagged F10T model assessed as stabilization by measuring change in melting temperature at 2 uM by fluorescence based analysis; format: nucleic-acid assay
Hep 3B2 = test: Antiproliferative activity against human Hep3B cells assessed as inhibition of cell growth incubated for 72 hrs by MTT assay; format: functional, cell-based
Quadruplex DNA = test: Binding affinity to c-MYC G4-quadruplex DNA (unknown origin) using fluorescent tagged FPu18T model assessed as stabilization by measuring change in melting temperature at 2 uM by fluorescence based analysis; format: nucleic-acid assay
H22 = test: Antitumor activity against […] xenografted in ICR mouse assessed as inhibition of tumor growth at 20 mg/kg, iv administered for 21 days and measured every 2 days relative to control; format: functional; settings: H22, 504 h, time 21 day, read-out: TGI
[3] = Antiproliferative activity against human LX2 cells assessed as inhibition of cell growth incubated for 72 hrs by MTT assay; format: functional, cell-based; settings: LX-2, 72 h
Huh-7 = test: Antiproliferative activity against human Huh-7 cells assessed as inhibition of cell growth incubated for 72 hrs by MTT assay; format: functional, cell-based; settings: Huh-7, 72 h

IC50 (HepG2 [1]): 7180 nM
Structure (SMILES): CCCCCCCCc1c2[n+](cc3c(NCCCN)c(OC)ccc13)CCc1cc3c(cc1-2)OCO3

IC50 (HepG2 [1]): 1020 nM
Structure (SMILES): CCCCCCCCCCc1c2[n+](cc3c(NCCN(C)C)c(OC)ccc13)CCc1cc3c(cc1-2)OCO3

IC50 (HepG2 [1]): 2420 nM
Structure (SMILES): CCCCCCc1c2[n+](cc3c(NCCN(C)C)c(OC)ccc13)CCc1cc3c(cc1-2)OCO3

IC50 (SK-HEP1): > 50 µM | IC50 (HepG2 [1]): > 50000 nM | IC50 (HepG2 [2]): > 50 µM | ΔTm (DNA): 2.1 °C | ΔTm (Quadruplex DNA): 1.6 °C | IC50 (Huh-7): > 50 µM
Structure (SMILES): COc1ccc2cc3[n+](cc2c1OC)CCc1cc2c(cc1-3)OCO2 [BERBERINE]
IC50 (Hep 3B2): > 50 µM | inhibition in vivo at 20 mg/kg (H22): 42.3% | IC50 [3]: > 50 µM

From ChEMBL document CHEMBL5241127, “Design, synthesis and biological evaluation of novel 9-N-substituted-13-alkylberberine derivatives from Chinese medicine as anti-hepatocellular carcinoma agents” (Bioorg Med Chem, 2023)
